According to US12723235B2, “Method for expanding hepatocyte in vitro and application” (Center for Excellence in Molecular Cell Science, Chinese …, priority 2018, dated 2026):
Where two headings read alike, the source gives them in different places. Each block holds one molecule with its values, some of them ahead of it.

How the values were obtained:
human hepatocytes = assay: Expansion of human hepatocytes in HM medium with, without or with replaced Wnt signaling pathway agonist (6 days); format: cell-based; settings: 50 ng/ml Wnt3a purified protein or CHIR 0.1 μM
Source text: (§1) A. Cell photographs of human hepatocytes cultured for 6 days in: HM medium containing Wnt3a conditioned medium, HM medium without Wnt3a conditioned medium, HM medium containing Wnt3a purified protein instead of Wnt3a conditioned medium, and HM medium containing CHIR instead of Wnt3a conditioned medium.
as §1, with “B. Fold of expansion” for “A. Cell photographs”
Cryopreserved human liver cells were purchased from Celsis In Vitro Technologies (Baltimore, MD, U.S.). The cryopreserved human hepatocytes were resuscitated in DMEM medium containing 10% serum, and seeded in a collagen-I-coated plate at 2*10^4 cells/cm^2. The culture plate was incubated at 37° C. in a 5% CO2, 5% O2 incubator. The medium was changed to the hepatocyte medium one day after seeding and every 3 days thereafter. After 6 days of culture, the fully grown cells were trypsinized and seeded in a collagen-I-coated plate at 3*10^4 cells/cm^2. The culture plate was incubated at 37° C. in a 5% CO2 and 5% O2 incubator.
The HM medium contains a variety of growth factors and small molecule compounds.

ProliHHs [1] = tested on: ProliHHs
Source text: (§2) The fully grown proliferating human hepatocytes are trypsinized and re-suspended in the hepatocyte medium, and seeded in a non-attached 24-well plate (Elplasia, Japan) at 5*10^5 cells/well. One day later, the medium was replaced with the hepatocyte induction medium, and the cells will slowly aggregate into cell spheres. The medium was changed every 2 days, and the induced cells were collected 10 days after the induction.
(§3) • 1) Extract cellular RNA by Trizol (Invitrogen) or RNeasy FFPE Kit (Qiagen). • 2) Obtain cDNA by M-MLV reverse transcriptase (Promega) kit, using 1 μg Trizol-extracted RNA, or 1 μg or all (according to the particular amount) of the RNA extracted by RNeasy FFPE Kit. • 3) Perform real-time quantitative PCR using SYBR Premix Ex Taq kit (TaKaRa), and detect expression of genes with ABI StepOnePlus real-time PCR system (Applied Biosystems). All Q-PCR data were performed with at least 2 repeats.
(§4) For detecting urea secretion ability of the cultured cells, supernatants of cell culture were collected after 24-hour culture and analyzed by urea assay kit (Abnova) according to its protocol.
(§5) For measurement of CYP2B6 metabolism activity of the proliferating human hepatocytes, cells subjected 10 days of hepatic induction and freshly resuscitated human hepatocytes were incubated respectively in a medium containing 100 um bupropion. Supernatants of cell culture were present to RILD Liver Company to detect the production of CYP2B6 metabolites using mass spectrometry. Standard curves were drawn using commercially purchased standards.

ProliHHs [2] = assay: In vitro hepatic maturation induction of ProliHHs (3D culture, 10 days; morphology, gene expression, CYP2B6 and urea metabolism); settings: components added to HM to give HIM
Source text: as §2, §3, §4, §5

Molecule: Cc1c[nH]c(-c2cnc(NCCNc3ccc(C#N)cn3)nc2-c2ccc(Cl)cc2Cl)n1 [CHIR, CHIR99021]
cell morphology and expansion fold compared with Wnt3a conditioned medium (human hepatocytes): similar | expansion of human hepatocytes when replacing Wnt3a conditioned medium in HM medium (human hepatocytes): could be expanded

Molecule: Oncostatin M [OSM]
role in hepatic maturation medium (metabolic maturation, inhibition of progenitor gene expression) (ProliHHs [1]): key factors

B1: Wnt3a purified protein: Purified Wnt3a protein, Wnt signaling pathway agonist (stemimmune LLC) (protein, UniProt P56704 19-352, looked up)
Protein Wnt-3a: SYPIWWSLAVGPQYSSLGSQPILCASIPGLVPKQLRFCRNYVEIMPSVAEGIKIGIQECQHQFRGRRWNCTTVHDSLAIFGPVLDKATRESAFVHAIASAGVAFAVTRSCAEGTAAICGCSSRHQGSPGKGWKWGGCSEDIEFGGMVSREFADARENRPDARSAMNRHNNEAGRQAIASHMHLKCKCHGLSGSCEVKTCWWSQPDFRAIGDFLKDKYDSASEMVVEKHRESRGWVETLRPRYTYFKVPTERDLVYYEASPNFCEPNPETGSFGTRDRTCNVSSHGIDGCDLLCCGRGHNARAERRREKCRCVFHWCCYVSCQECTRVYDVHTCK
cell morphology and expansion fold compared with Wnt3a conditioned medium (human hepatocytes): similar | expansion of human hepatocytes when replacing Wnt3a conditioned medium in HM medium (human hepatocytes): could be expanded

The next lines start with the values.

role in hepatic maturation medium (metabolic maturation, inhibition of progenitor gene expression) (ProliHHs [1]): key factors
Molecule: C[C@@H]1C[C@H]2[C@@H]3CCC4=CC(=O)C=C[C@]4(C)[C@@]3(F)[C@@H](O)C[C@]2(C)[C@@]1(O)C(=O)CO [DEX, Dexamethasone]

role in hepatic maturation medium (metabolic maturation, inhibition of progenitor gene expression) (ProliHHs [2]): key factors
Molecule: C=C[C@@]1(C)CC(=O)[C@]2(O)[C@@]3(C)[C@@H](O)CCC(C)(C)[C@@H]3[C@H](O)[C@H](OC(C)=O)[C@@]2(C)O1 [Forskolin]
